Tests used:
[1] = system: healthy individuals with memory loss induced by injection of scopolamine; assay: Attention (Digit Symbol Substitution Test), alertness and mood (EVA by Bond and Lader), reaction times, after scopolamine; format: in vivo; details: 24 healthy individuals, repeated oral doses
Protocol: (§1) Under the present invention, the activity of DMAE and its salts and esters, and the hydrates and solvates, was assessed in a population in whom this memory disorder was induced by injection of scopolamine, to reproduce the profile of the target population.
(§2) The medications given were in forms suitable to be taken via oral route, corresponding to dosage units allowing daily doses in the order of 100 mg to 3 g, advantageously 300 mg to 3 g of active ingredient in adults, particularly in the order of 1500 mg per day. The tested medications led to plasma levels corresponding to a Cmax peak of around 1.5 μg/ml of DMAE and/or around 24 ng/ml of pGlu (pyroglutamic acid).
(§3) The Applicant conducted the following tests: • Memory test: Buschke Selective Reminding Test, • Attention test: Digit Symbol Substitution Test (90″) • Assessment of alertness and mood: EVA by Bond and Lader, • Sensory-motor performance tests: reaction times (total, decisional and motor)

[2] = system: healthy individuals with memory loss induced by injection of scopolamine; assay: Buschke Selective Reminding Test, memory loss induced by injection of scopolamine (cross-over study); format: in vivo; details: 24 healthy individuals, repeated oral doses
Protocol: as §1, §2, §3
The main results observed are given in the graphs of the appended FIGS. 1 to 4 in which: • LTS designates the number of words acquired in long-term storage, • LTR designates the number of words retrieved from long-term memory in each test i.e. the words belonging to LTS and which are recalled for the test in progress, and • CLTR designates the number of words which are consistently acquired i.e. which are recalled during subsequent tests.

Row | Compound | impact on the other cognitive components tested such as alertness, attention [1] | effect on memory performance levels [2]
1 | CN(C)CCO.O=C1CC[C@@H](C(=O)O)N1 [DMAE pyroglutamate] | without any impact | specific effect on memory performance levels
2 | CN(C)CCO [DMAE, dimethylaminoethanol] | without any impact | specific effect on memory performance levels

Reference: patent US8207218B2, “DMAE as sole agent for the treatment of mild cognitive impairment” (Pierre Fabre Medicament, priority 2006, dated 2012)
